In patent US20260041796A1, “REGULATION OF IMMUNE RESPONSES THROUGH SELECTIVE NEURAL ACTIVATION” (The Trustees of Columbia University in the City of New York, priority 2021, published 2026):

How the values were obtained:
[1] = test system: LPS-TRAPed population in the cNST; test: Blood cytokine levels after LPS with chemogenetic (DREADD) activation of LPS-TRAPed cNST neurons; assay type: in vivo
Method: FIG. 12 illustrates the effect of neuronal stimulation in the caudal nucleus of the solitary tract on the immune response. […] Neuronal populations were chemogenetically activated with designer receptor exclusively activated by a designer drug (DREADD) while the animal is given LPS and cytokine levels in the blood were measured. In the control animals, LPS induced the strong release of pro-inflammatory TNFa, reaching 200 pg/ml in the peripheral blood. When this brainstem neuronal population was activated with DREADD, there was a remarkable suppression of pro-inflammatory cytokine release, resulting in 90% reduction in the TNFa in the blood. The same results were obtained for another proinflammatory cytokine, IL-6. In addition to suppressing the release of pro-inflammatory cytokines, activation of this neuronal population markedly increase the release of the anti-inflammatory cytokine, IL-10. Thus, this brain circuit triggers a strong anti-inflammatory response while suppressing pro-inflammatory cytokines. Note that under normal conditions (control) the immune insult triggers a very large induction of pro-inflammatory cytokines (TNFa; left panels), and this induction is suppressed by activation of the cNST neurons (compare bars). […]
FIG. 19 illustrates that activating cNST-responsive neurons dramatically suppresses inflammatory responses. […] These neurons were artificially activated after LPS using a synthetic drug, CNO, and then cytokine levels in the circulation were analyzed in response to LPS.
It was shown that neurons in the caudal nucleus of the solitary tract (cNST) in the brainstem are activated by peripheral (intraperitoneal) administration of LPS (lipopolysaccharide), a potent inducer of inflammatory responses (FIG. 5). […] Next, to uncover the role of these cNST neurons in immune responses, a chemogenetic silencer was introduced by genetic Trapping, and the effect of silencing these cNST neurons in the emergence of LPS-induced inflammatory responses was evaluated. […]

vagal sensory neurons = test: In-vivo calcium imaging (GCaMP6s) of nodose ganglion after intraperitoneal cytokine; settings: intraperitoneal injection; no response to saline or glucose
Method: FIG. 7 illustrates a subset of neurons in the nodose ganglion that respond to pro-inflammatory cytokines. Calcium responses in vagal sensory neurons expressing the genetically encoded fluorescent calcium indicator GCaMP6s were imaged while administering cytokines intraperitoneally. The platform was modified to image the response of vagal sensory neurons to cytokines. The cytokine was administered via intraperitoneal injection and calcium activity in the nodose ganglion was monitored. Heat maps depicting z-score-normalized fluorescence traces from vagal neurons identified as responders of proinflammatory cytokine (TNFa). Neural activity was detected using an in-vivo calcium imaging platform with genetically encoded calcium indicator GCaMP6 expressed in all vagal sensory neurons. Each trial represents the activity of a single cell. […]
FIG. 8 illustrates a subset of neurons in the nodose ganglion that respond to anti-inflammatory cytokines. Heat maps depicting z-score-normalized fluorescence traces from vagal neurons identified as responders of anti-inflammatory cytokines (IL-4). […] Neural activity was detected using an in-vivo calcium imaging platform with genetically encoded calcium indicator GCaMP6 expressed in all vagal sensory neurons. […] The cytokine was administered via intraperitoneal injection and calcium activity in the nodose ganglion was monitored. […]

[2] = test system: caudal nucleus of the solitary tract (cNST); test: Fos induction in the brain after peripheral LPS immune challenge; assay type: in vivo; settings: LPS stimulus vs saline control; c-fos as proxy for neural activity
Source text: Peripheral immune challenge evokes brain activities. LPS was used to induce an innate immune response and the brain was examined for the induction of c-fos as a proxy for neural activity. […] When the body experiences bacterial infections, the bacterial membrane component lipopolysaccharide (LPS) triggers strong innate immune response. LPS (right) but not saline control (left) strongly activates cNST (circled area). For each condition, a representative image from N>=3 animals is shown. Scale bar: 100 μm. Strong bilateral c-fos labeling was detected in the caudal nucleus of the solitary tract (cNST) in the brainstem.
A brainstem circuit that functions as a conduit to convey peripheral immune information to the brain was identified. […] Using an activity marker (cFos induction), it was determined that a selective population of neurons in the brain are activated in response to administration of a peripheral immune insult.
It was shown that neurons in the caudal nucleus of the solitary tract (cNST) in the brainstem are activated by peripheral (intraperitoneal) administration of LPS (lipopolysaccharide), a potent inducer of inflammatory responses (FIG. 5). […] Next, to uncover the role of these cNST neurons in immune responses, a chemogenetic silencer was introduced by genetic Trapping, and the effect of silencing these cNST neurons in the emergence of LPS-induced inflammatory responses was evaluated.

[3] = test system: caudal nucleus of the solitary tract (cNST); test: TRAP activity-based labelling of LPS-responsive neurons; assay type: in vivo; settings: LPS-treated vs saline treated animals
Source text: The activity based labelling strategy, TRAP, was used to identify and access neuronal populations activated during LPS induced inflammation. Neurons TRAPed by LPS (right) but not saline control (left) are seen in the cNST (circled area). For each condition, a representative image from N>=3 animals is shown. Scale bar: 500 μm.
It was shown that neurons in the caudal nucleus of the solitary tract (cNST) in the brainstem are activated by peripheral (intraperitoneal) administration of LPS (lipopolysaccharide), a potent inducer of inflammatory responses (FIG. 5). […] In other words, the brain monitors and modulates immune responses in the body. […] Next, to uncover the role of these cNST neurons in immune responses, a chemogenetic silencer was introduced by genetic Trapping, and the effect of silencing these cNST neurons in the emergence of LPS-induced inflammatory responses was evaluated.

[4] = TRAPed cNST neurons activated after LPS, cytokine levels in the circulation

## C[N+]1([O-])CCN(C2=Nc3cc(Cl)ccc3Nc3ccccc32)CC1 [CNO, clozapine N-oxide]
[1]; [4]
  levels of anti-inflammatory cytokines: very large increase
  release of pro-inflammatory cytokines: dramatic suppression

## TNFa
Vagal sensory neurons
  calcium activity in a subset of vagal sensory neurons: robust activity

## lipopolysaccharide [LPS]
[2]
  Fos induction in the cNST: Strong Fos induction
[1]; control animals given LPS, no neuronal activation
  TNFa in the peripheral blood: 200 pg/mL
[3]
  labelling of cNST with fluorescence reporter (tdTomato): Strong labelling

B1: IL-4: anti-inflammatory cytokine administered intraperitoneally (protein, UniProt P05112 25-153, looked up)
Interleukin-4: HKCDITLQEIIKTLNSLTEQKTLCTELTVTDIFAASKNTTEKETFCRAATVLRQFYSHHEKDTRCLGATAQQFHRHKQLIRFLKRLDRNLWGLAGLNSCPVKEANQSTLENFLERLKTIMREKYSKCSS
Vagal sensory neurons
  calcium activity in a subset of vagal sensory neurons: robust activity
